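These data come from cells grown in 96-well plates and exposed to compound for 48 hours at five concentrations. TGI marks complete inhibition of growth.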
Columns and labels:
Assay in all cases: growth of human tumour cells (NCI), 48 h
SK-MEL-5 melanoma = tested on: SK-MEL-5 melanoma
NCI-H226 lung = tested on: NCI-H226 lung
SN12C renal = tested on: SN12C renal
ACHN renal = tested on: ACHN renal
SF-295 CNS = tested on: SF-295 CNS
SR leukemia = tested on: SR leukemia
RPMI-8226 leukemia = tested on: RPMI-8226 leukemia
UACC-62 melanoma = tested on: UACC-62 melanoma
HCT-15 colon = tested on: HCT-15 colon
BT-549 breast = tested on: BT-549 breast
A549 NSCLC = tested on: A549 NSCLC
MDA-MB-231 breast = tested on: MDA-MB-231 breast
SK-MEL-2 melanoma = tested on: SK-MEL-2 melanoma
HOP-62 NSCLC = tested on: HOP-62 NSCLC
CAKI-1 renal = tested on: CAKI-1 renal
SNB-75 CNS = tested on: SNB-75 CNS
DU-145 prostate = tested on: DU-145 prostate
M14 melanoma = tested on: M14 melanoma
SW-620 colon = tested on: SW-620 colon
NCI/ADR-RES ovarian = tested on: NCI/ADR-RES ovarian
HS 578T breast = tested on: HS 578T breast
T-47D breast = tested on: T-47D breast
SK-MEL-28 melanoma = tested on: SK-MEL-28 melanoma
HCT-116 colon = tested on: HCT-116 colon
IGROV1 ovarian = tested on: IGROV1 ovarian
UO-31 renal = tested on: UO-31 renal
MOLT-4 leukemia = tested on: MOLT-4 leukemia
OVCAR-8 ovarian = tested on: OVCAR-8 ovarian
SNB-19 CNS = tested on: SNB-19 CNS
PC-3 prostate = tested on: PC-3 prostate
HL-60(TB) leukemia = tested on: HL-60(TB) leukemia
EKVX NSCLC = tested on: EKVX NSCLC
SK-OV-3 ovarian = tested on: SK-OV-3 ovarian
MDA-N = tested on: MDA-N
K-562 leukemia = tested on: K-562 leukemia
UACC-257 melanoma = tested on: UACC-257 melanoma
RXF 393 renal = tested on: RXF 393 renal
NCI-H23 lung = tested on: NCI-H23 lung
OVCAR-4 ovarian = tested on: OVCAR-4 ovarian
OVCAR-3 ovarian = tested on: OVCAR-3 ovarian
KM12 colon = tested on: KM12 colon
COLO 205 colon = tested on: COLO 205 colon
MALME-3M melanoma = tested on: MALME-3M melanoma
786-0 renal = tested on: 786-0 renal
U251 CNS = tested on: U251 CNS
HOP-92 NSCLC = tested on: HOP-92 NSCLC
SF-268 CNS = tested on: SF-268 CNS
CCRF-CEM leukemia = tested on: CCRF-CEM leukemia
TK-10 renal = tested on: TK-10 renal
LOX IMVI melanoma = tested on: LOX IMVI melanoma
MDA-MB-435 = tested on: MDA-MB-435
OVCAR-5 ovarian = tested on: OVCAR-5 ovarian
NCI-H522 lung = tested on: NCI-H522 lung
HT29 colon = tested on: HT29 colon

Question: Which TGI (SK-MEL-5 melanoma) does the source give for N=C(c1ccc(-c2cn3cc(C(=N)N4CCCC4)ccc3n2)cc1)N1CCCC1 here?
Answer: > 100 µM

Question: And the TGI (NCI-H226 lung)?
Answer: > 100 µM

Question: What about the TGI (SN12C renal) of the same compound?
Answer: > 100 µM

Question: What about the TGI (ACHN renal) of the same compound?
Answer: > 100 µM

Question: And the TGI (SF-295 CNS)?
Answer: > 100 µM

Question: What about the TGI (SR leukemia) of the same compound?
Answer: > 100 µM

Question: And the TGI (RPMI-8226 leukemia)?
Answer: > 100 µM

Question: And the TGI (UACC-62 melanoma)?
Answer: > 100 µM

Question: And the TGI (HCT-15 colon)?
Answer: > 100 µM

Question: And the TGI (BT-549 breast)?
Answer: > 100 µM

Question: What about the TGI (A549 NSCLC) of the same compound?
Answer: > 100 µM

Question: What about the TGI (MDA-MB-231 breast) of the same compound?
Answer: > 100 µM

Question: And the TGI (SK-MEL-2 melanoma)?
Answer: > 100 µM

Question: And the TGI (HOP-62 NSCLC)?
Answer: > 100 µM

Question: And the TGI (CAKI-1 renal)?
Answer: > 100 µM

Question: And the TGI (SNB-75 CNS)?
Answer: > 100 µM

Question: And the TGI (DU-145 prostate)?
Answer: > 100 µM

Question: What about the TGI (M14 melanoma) of the same compound?
Answer: > 100 µM

Question: And the TGI (SW-620 colon)?
Answer: > 100 µM

Question: What about the TGI (NCI/ADR-RES ovarian) of the same compound?
Answer: > 100 µM

Question: And the TGI (HS 578T breast)?
Answer: > 100 µM

Question: And the TGI (T-47D breast)?
Answer: > 100 µM

Question: And the TGI (SK-MEL-28 melanoma)?
Answer: > 100 µM

Question: What about the TGI (HCT-116 colon) of the same compound?
Answer: > 100 µM

Question: And the TGI (IGROV1 ovarian)?
Answer: > 100 µM

Question: What about the TGI (UO-31 renal) of the same compound?
Answer: > 100 µM

Question: And the TGI (MOLT-4 leukemia)?
Answer: > 100 µM

Question: What about the TGI (OVCAR-8 ovarian) of the same compound?
Answer: > 100 µM

Question: And the TGI (SNB-19 CNS)?
Answer: > 100 µM

Question: And the TGI (PC-3 prostate)?
Answer: > 100 µM

Question: And the TGI (HL-60(TB) leukemia)?
Answer: 0.158 µM

Question: What about the TGI (EKVX NSCLC) of the same compound?
Answer: > 100 µM

Question: What about the TGI (SK-OV-3 ovarian) of the same compound?
Answer: > 100 µM

Question: And the TGI (MDA-N)?
Answer: > 100 µM

Question: And the TGI (K-562 leukemia)?
Answer: > 100 µM

Question: And the TGI (UACC-257 melanoma)?
Answer: > 100 µM

Question: And the TGI (RXF 393 renal)?
Answer: > 100 µM

Question: What about the TGI (NCI-H23 lung) of the same compound?
Answer: > 100 µM

Question: What about the TGI (OVCAR-4 ovarian) of the same compound?
Answer: > 100 µM

Question: What about the TGI (OVCAR-3 ovarian) of the same compound?
Answer: > 100 µM

Question: What about the TGI (KM12 colon) of the same compound?
Answer: > 100 µM

Question: What about the TGI (COLO 205 colon) of the same compound?
Answer: > 100 µM

Question: What about the TGI (MALME-3M melanoma) of the same compound?
Answer: > 100 µM

Question: What about the TGI (786-0 renal) of the same compound?
Answer: > 100 µM

Question: And the TGI (U251 CNS)?
Answer: > 100 µM

Question: What about the TGI (HOP-92 NSCLC) of the same compound?
Answer: > 100 µM

Question: And the TGI (SF-268 CNS)?
Answer: > 100 µM

Question: And the TGI (CCRF-CEM leukemia)?
Answer: 83.1 µM

Question: And the TGI (TK-10 renal)?
Answer: > 100 µM

Question: What about the TGI (LOX IMVI melanoma) of the same compound?
Answer: > 100 µM

Question: What about the TGI (MDA-MB-435) of the same compound?
Answer: > 100 µM

Question: What about the TGI (OVCAR-5 ovarian) of the same compound?
Answer: > 100 µM

Question: And the TGI (NCI-H522 lung)?
Answer: > 100 µM

Question: And the TGI (HT29 colon)?
Answer: > 100 µM
